Assays:
[1] = system: rat hepatocytes in coculture with rat biliary epithelial cells (RLEC); experiment: Hepatocyte DNA synthesis by BrdU labeling in rat hepatocyte/RLEC coculture; assay type: cell-based
Protocol: Freshly isolated hepatocytes are seeded on plastic dishes at 7×10^4 cells per cm2 in a mixture of 75% minimal essential medium and 25% 199 medium (Eurobio), supplemented with 2 mM L-glutamine, 0,1% bovine serum albumin (BSA, Sigma), 100 μg/ml streptomycin, 100 Ul/ml penicillin, 5 μg/ml bovine insulin (Sigma), 1.4×10^-6 M hydrocortisone hemisuccinate (Roussel) and 10% fetal calf serum (Hyclone). This medium is called “basal medium”.
After cell adhesion, approximately 4 hours after seeding, RLEC, previously trypsinized, are added on spread hepatocytes at 2×10^5 cells per cm2 in basal medium.
Twenty four hours later, the medium is removed and replaced by a medium supplemented in 7×10^-5 M hydrocortisone hemisuccinate, which promotes hepatocyte differentiation and survival. This medium is renewed everyday for 4 days. Then, the concentration of hydrocortisone hemisuccinate is decreased to 7×10^-6 M for 2 days.
7 day-old cocultures are stimulated with human recombinant EGF (50 ng/ml, Promega) and human recombinant TNF-alpha (10 ng/ml, Promokine) in basal medium for 3 to 10 days. The medium is renewed everyday. As control, cocultures exposed to TNFα alone or EGF are used.
To induce several rounds of hepatocyte proliferation, 7 day-old cocultures are stimulated with human recombinant EGF (50 ng/ml) and human recombinant TNFα (10 ng/ml) in basal medium, for 10 days. Then, a pause in stimulation is performed for 4 days, during which cells are maintained in medium supplemented in 7×10^-6 M hydrocortisone hemisuccinate. Next, cocultures are treated with EGF and TNFα in basal medium for 10 days.
(§1) Hepatocyte DNA synthesis is measured by using BrdU (bromodeoxyuridine) labeling. BrdU incorporation in DNA is detected by immunohistochemistry using the Cell Proliferation Kit (Amersham). The number of labeled hepatocytes is determined (5 fields per dish) in order to calculate the percentage of BrdU incorporation.

extracellular matrix = experiment: Extracellular matrix deposition analysis (reticulin staining) in coculture; assay type: cell-based, rat; conditions: 7 day-old cocultures
Protocol: Matrix fibers are visualized in cocultures fixed with a mixture of 4% paraformaldehyde and 2.5% glutaraldehyde in 0.1 M cacodylate buffer (pH 7.4) for 15 min at 4° C. Then the reticulin staining by silver impregnation of extracellular matrix is carried out according to the method of Gordon and Sweets and applied to coculture (Exp Cell Res 1984; J Cell Biol 1991). Matrix components are analysed by immunostaining using antibodies against fibronectin, collagen I, collagen III)

pro-MMP9 = experiment: Gelatin zymography of coculture supernatant; assay type: cell-based, rat; conditions: FCS-free medium, 24 h
Protocol: 7 day-old cocultures are stimulated with different combinations of TNFα and/or EGF in a FCS-free medium for 24 h. Twenty μl of supernatant are electrophoresed under nonreducing conditions on 12% SDS-polyacrylamide gel containing 0,1% bovine skin gelatin (Sigma) as substrate. After electrophoresis, the gel is washed twice with 2.5% Triton X-100 for 10 min and twice with water for 20 min. After incubation overnight at 37° C. in reaction buffer (50 mM Tris-HCL, pH 8; 5 mM CaCl2; 5 μM ZnCl2), the gel is stained with Coomassie Brillant Blue and destained. Clear zones in blue background indicate the presence of metalloproteinase pro-MMP9 activity; 5% FCS is used as positive control.

[2] = system: cyclin D1, EF21, cyclin E, Cdk1; experiment: Expression of cell cycle markers in coculture; assay type: cell-based, rat; conditions: successive 24 h treatments
Protocol: A test is provided to analyze the mechanism of cell cycle blockage or progression (early G1, Late G1, S and M) induced by drugs by studying the expression of cell cycle markers which sign different steps of cell cycle (cyclin D1, E2 F1, Cdk2, cyclin E, Cdk1, cyclin B, PCNA, alpha tubulin). Successive 24 h treatments of cocultures by molecules added alone or in combination with EGF or TNFα are used to determine the effect of each molecule.
Cells are arrested at each time (24 and 48 h) and protein extracts are prepared and separated in SDS-polyacrylamide gel. Cell cycle markers are analyzed by western blot using corresponding antibodies.

human hepatocytes = experiment: DNA synthesis by BrdU incorporation in pure culture of human hepatocytes; assay type: cell-based; conditions: stimulated 24 h after seeding for 48 h
Protocol: Freshly isolated hepatocytes are seeded on plastic dishes at 5×10^4 cells per cm2 in a William's E medium (Eurobio) supplemented with 2 mM L-glutamine (Gibco), 0,1% bovine serum albumin (BSA, Sigma), 100 μg/ml streptomycin, 100 Ul/ml penicillin (Eurobio), 50 μg/ml gentamycine (Sigma), 5 μg/ml bovine insulin (Sigma), and 10% fetal calf serum (HyClone).
Twenty four hours after seeding, human hepatocytes are stimulated with recombinant human TNFα (Promokine, 10 ng/ml) and recombinant human EGF (Promega, 50 ng/ml). These factors are added in William's E medium (Eurobio) supplemented with 2 mM L-glutamine (Gibco), 0,1% bovine serum albumin (BSA, Sigma), 100 μg/ml streptomycin, 100 Ul/ml penicillin (Eurobio), 50 μg/ml gentamycine (Sigma), 5 μg/ml bovine insulin (Sigma), 1.4×10^-6 M hydrocortisone hemisuccinate (Roussel), 10% fetal calf serum. This medium is renewed every day and stimulation lasts at least 2 days.
BrdU is incubated in medium during the last 24 h of treatment. Then pure cultures are fixed with a mixture of 90% ethanol, 5% acid acetic and 5% water for 20 min at 4° C. BrdU incorporation in DNA is detected by immunohistochemistry using the Cell Proliferation kit (Amersham). Next, cytoplasm and nuclei are stained in blue with Hemalun (Merck). The numbers of labeled hepatocytes are determined (5 fields per dish) in order to calculate percentage of BrdU incorporation.

[3] = system: rat hepatocytes in coculture; experiment: Inhibition of extracellular matrix remodeling: hepatocyte DNA synthesis in coculture; assay type: cell-based; conditions: phenanthroline 1 μM added to cocultures treated with EGF for 24 h and then with TNFα
Protocol: as §1
7 day-old cocultures are stimulated with EGF and then with TNFα for 24 h periods. Factors are added in a FCS-free medium. Inhibition of extracellular matrix degradation is induced with 1,10-Phenanthroline monohydrate (Sigma), a chelator of metal ions which inhibits the metalloproteinase activity. This compound is soluble in dimethylsulfoxyde and is used at 1 μM.

With “TGFα: transforming growth factor alpha (20 ng/ml), replacing EGF” the “DNA synthesis when EGF is replaced by another growth factor” value ([1]; with TNFα, HGF 25 ng/ml, TGFα 20 ng/ml, compared with TNFα/EGF) was “highest DNA synthesis”.
In the case of TNFα, the “extracellular matrix (ECM) deposition” value (extracellular matrix) is reported as “very sparse”, the “Pro-MMP9 (92 Kda) expression by zymography” value (pro-MMP9) is reported as “expressed” and the “effect on hepatocyte cell cycle progression” value [2] is reported as “allows S entry through Cdk1 induction”.
“EGF: human recombinant EGF (50 ng/ml, Promega), growth factor” was tested, and the “BrdU incorporation under permanent exposure” value ([1]; continued after a first 10 day-stimulation with TNFα/EGF, from day 10) was “gradually decreases”, the “extracellular matrix (ECM) deposition” value (extracellular matrix) was “very abundant” and the “Pro-MMP9 (92 Kda) expression by zymography” value (pro-MMP9) was “not detected”. The “hepatocytes with DNA synthesis (S phase entry)” value (human hepatocytes) was 8% and the “effect on hepatocyte cell cycle progression” value [2] was “promotes hepatocyte cell cycle progression to late G1”.
With `O.c1cnc2c(c1)ccc1cccnc12` [phenanthroline, 1,10-Phenanthroline monohydrate] the DNA synthesis [3] was “strongly decreased”.
For “interleukin 6: cytokine known to modulate extracellular matrix remodeling, used at 5 ng/ml”, the “hepatocyte response to growth factors (DNA replication)” value ([1]; coculture, 5 ng/ml) was “allow hepatocytes to respond to growth factors”.
